Columns and labels:
[1] = test system: keratinocyte-melanocyte co-cultures (Human HaCaT keratinocytes, human primary melanocytes); experiment: Induced pigmentation in keratinocyte-melanocyte co-cultures, DOPA staining and computerized image analysis; type: cell-based; conditions: three daily treatments; for Mean area: DOPA stain, relative pigmented area; for % increase: versus control
Description: The peptide Peptide 1 and various pigments were tested, alone or in combination, with keratinocyte-melanocyte cultures for their effect on cell pigmentation, using DOPA staining and computerized image analysis. The pigments that were tested were copper chloride from Sigma (St. Louis, Mo.) and the water-soluble melanin derivative Melasyn-100™ from San-mar laboratories, Inc. (Elmsford, N.Y.). The pigments were tested at concentrations ranging from 0.0001% (W/V) to 0.1% (W/V) and peptides were tested at 50 μM.
The assay was conducted in the following manner. Human HaCaT keratinocytes (Boukamp P., et al., J Cell Biol 106, 3, 761-771 (1988)) were maintained in Dulbecco's Modified Eagle's Medium (DMEM) containing 10% fetal bovine serum (FBS), 4.5 mg/ml glucose, 2 mM L-glutamine, 50 U/ml penicillin and 50 μg/ml streptomycin (Life Technologies, Gaithersburg, Md.). Cells were maintained at <80% confluency in 5% CO2 (v/v) and were used in experimental procedures up to culture passage 15. Human primary melanocytes (Clonetics, San Diego, Calif. or Cascade Biologics, Portland, Oreg.) were maintained according to manufacturer's instructions. To establish keratinocyte-melanocyte co-cultures, 6×10^4 melanocytes were plated in each well of a 24 well plate and maintained according to manufacturer's instructions.
Melanocytes were rinsed three times with melanocyte growth media without PMA and keratinocytes (6×10^4) were plated to establish the co-cultures in this media. Co-cultures were treated for three days with test peptides and pigments, and assayed for cell viability and pigment level on the forth day. Cell viability was assayed using alamarBlue™ (Acumed International, West Lake, Ohio) following manufacturer's instructions. No change in viability was observed following three daily treatments with all tested material. All in vitro experiments were performed in triplicates, and were repeated at least three times.
Following three daily treatments, the co-cultures were briefly fixed (10% buffered formalin from Fisher Scientific, 15 minutes), washed three times with Phosphate-buffered saline (PBS, from Life Technologies) and stained with L-3,4-Dihydroxyphenylalanine (DOPA, from Sigma, St. Louis, Mo.) 0.1% in PBS, for 5 hours at 37° C., followed by two PBS washes and formalin (10%, overnight) fixation. DOPA is a substrate for tyrosinase, therefore an increase in staining represents increased tyrosinase activity and pigment production. DOPA-stained monolayers were used for image analysis. All images were obtained and analyzed with Image Pro Plus 3.0 software (Media Cybernetics, Silver Spring, Md.). Parameters measured were surface area of stained material within melanocyte and keratinocytes and the total surface area of the cells in the culture, and the relative pigmented area was calculated. A value of 100% was assigned to untreated controls, and values of treatment groups were normalized to their relevant controls. In all experiments there was no difference between PBS-treated cells and untreated controls. Data are presented with standard deviation (SigmaPlot® 5.0, SPSS Science, Chicago, Ill.).
Forskolin (Sigma, St. Louis, Mo.), a known inducer of pigmentation, served as a positive control and a reference point. Forskolin was administered at 1% (W/V).

[2] = test system: Dark skinned Yucatan microswine; experiment: Induced pigmentation in vivo, F&M-stained skin sections of topically treated swine; parameters: key: −1: Slight lightening; 0: No change; 1: Minimal increase in pigment deposition; 2: Increased pigment deposition; 3: Strong increase in pigment deposition, some increase in caps; 4: Strong increase in pigment deposition, strong increase in caps; conditions: topical, twice a day, five days/week, eight or nine weeks; average of all sites of responsive swine; positive controls 1% (W/V), peptides 250 or 500 μM, pigments 1% or 5% (W/V)
Description: Compositions of the present invention were tested for their ability to induce in vivo pigmentation in skin cells in the following experiment. Dark skinned Yucatan microswine (Charles River, Portland, Me.) were housed in appropriately sized cages in an environmentally controlled room with a 12-hour light-12-hour dark photoperiod and supplied with food and water ad libitum. Animal care was based on the “Guide for the Care and Use of Laboratory Animals”, NIH Publication No. 85-23. Twenty μl of test peptides were applied topically, twice a day, five days/week, for eight or nine weeks, on the dorsum of the swine. Treatments of individual swine were always arranged in a head to tail order on one side, and in a tail to head order on the other side of the animal. Biopsies were taken using standard techniques.
Sections from the skin biopsies were stained with Hematoxylin and Eosin (H&E), or with Fontana-Mason (F&M), using standard procedures (Sheenan DC, Hrapckak BB, eds., Theory and Practice of Histo-technology. p. 223, 277, The C. V. Mosby Co., St. Louis (1980)). F&M staining identifies silver nitrate reducing molecules. In skin, this non-specific stain identifies primarily melanin. At least three sections per biopsy were processed. […]
F&M-stained histological skin sections were evaluated for the change in pigment deposition within the treated site. […]

Row | Compound | Mean area ([1]; 50 μM) | % increase ([1]; 50 μM) [%] | Score (change in pigment deposition) [2] | Mean area ([1]; 0.001% (W/V)) | % increase ([1]; 0.001% (W/V)) [%] | Mean area ([1]; 0.1% (W/V)) | % increase ([1]; 0.1% (W/V)) [%]
1 | H2-Val-Gly-Val-Ala-Pro-Gly-NH2 (H-VGVAPG-NH2) [Peptide 1] | 0.131 | 66.6 | 1 |  |  |  | 
2 | C=C[C@@]1(C)CC(=O)[C@]2(O)[C@@]3(C)[C@@H](O)CCC(C)(C)[C@@H]3[C@H](O)[C@H](OC(C)=O)[C@@]2(C)O1 [Forskolin] |  |  | 1 |  |  |  | 
3 | [Cl][Cu][Cl] [CuCl2, copper chloride] |  |  |  | 0.173 | 120 | 0.246 | 212

From US20020197219A1, “Composition containing a peptide and a pigment and the use thereof in darkening the skin” (priority 2001, published 2002)
